Laboratory results published in patent publication US20250073248A1, “BIORESORBABLE CATIONIC STEROIDAL ANTIMICROBIAL COMPOUNDS WITH GLYCERIDE LINKAGES” (BRIGHAM YOUNG UNIVERSITY, priority 2023, published 2025).
Converted amounts (≈) assume the structure as drawn.

Tests used:
[1] = system: methicillin-resistant Staphylococcus aureus (MRSA); experiment: MIC and MBC, broth microdilution, MRSA (Table 1); assay type: cell-based; details: Staphylococcus aureus
Description: (§1) To investigate the antimicrobial impact of structural variance in the novel bioresorbable CSA compounds disclosed herein,Pseudomonas aeruginosa 01 (PA01), methicillin-resistant Staphylococcus aureus (MRSA), and Candida albicans (CA) were selected, representing Gram-negative bacterial, Gram-positive bacterial, and fungal pathogens of high or critical priority on the world health organization's priority lists for bacteria and fungi. Earlier applications of CSA compounds have focused on preventing medical device infections, and all three strains are commonly found in colonized implants, making efficacy against these pathogens an important indicator of future applicability.
(§2) All compounds were screened against these pathogens to determine their minimum inhibitory concentration (MIC), minimum bactericidal concentration (MBC), and minimum fungicidal concentration (MFC) using a broth microdilution method. […] Of these three, only CSA-4110 was similarly active against PA01and CA, inhibiting growth at 8 μg/mL.

[2] = system: methicillin-resistant Staphylococcus aureus (MRSA); experiment: Example 1 MIC/MBC (FIG. 1, FIG. 2), MRSA; assay type: cell-based
Method: (§3) The antimicrobial activities of CSA-4108, CSA-4110, CSA-4112, and CSA-4114 were determined relative to methicillin-resistant Staphylococcus aureus (MRSA), Pseudomonas aeruginosa (Pa), and Candida albicans 90028. The minimum inhibitory concentration (MIC) for CSA-4108, CSA-4110, CSA-4112, and CSA-4114 relative to the foregoing microbes is graphically reported in FIG. 1. The minimum bactericidal concentration (MBC) and minimum fungicidal concentration […] for CSA-4108, CSA-4110, CSA-4112, and CSA-4114 relative to the foregoing microbes are graphically reported in FIG. 2.

Candida albicans (CA) = experiment: MIC and MFC, broth microdilution, CA (Table 1); assay type: cell-based; details: Candida albicans
Description: as §1, §2

physchem = assay type: physicochemical; details: for half-life: buffer
Method: (§4) The stability, more particularly the rate of hydrolysis in water, of CSA-4110 was tested at various pH values or when exposed to lipase.
(§5) To measure the stability of CSA-4110 under various conditions (pH and presence of lipase), monitored degradation over time by HPLC. To enable UV/visible detection, CSA-4110 required derivatization with a chromophore. A precolumn derivatization method was adapted using Fmoc-Cl. This method also required CSA-131 as an internal standard to eliminate errors due to volumetric variations.
(§6) With a reliable quantitative analysis method in hand, the optimal storage conditions were determined for CSA-4110 in solution and how quickly CSA-4110 degrades when exposed to mammalian lipases and varied pH. Reference is again made to FIGS. 3A-3D.

S. aureus ATCC 25923 = experiment: MIC/MBC of CSA-4110, Gram positive bacteria (Table 2); assay type: cell-based; details: Staphylococcus aureus, ATCC25923
Method: as §2
(§7) CSA-4110 was evaluated further against a broader range of bacterial and fungal strains. Acinetobacter baumannii and several isolates of Staphylococcus aureus, Klebsiella pneumoniae, and Candida auris were selected, further broadening the coverage of high and critical priority pathogens. Streptococcus uberis, Staphylococcus pseudintermedius, Proteus mirabilis, and Escherichia coli were also screened to obtain a more complete efficacy profile. […] For comparison, previous work established the MICs of CSA-131 against strains of Staphylococcus aureus, Pseudomonas aeruginosa, and Candida albicans at 0.5-2 μg/mL

S. aureus ATCC 27734 = experiment: as above; assay type: cell-based; details: Staphylococcus aureus, ATCC27734
Method: as §2, §7

[3] = system: S. psuedintermedius ATCC 49444; experiment: as above; assay type: cell-based; details: Staphylococcus pseudintermedius, ATCC49444
Method: as §2, §7

S. aureus ATCC 6538 = experiment: as above; assay type: cell-based; details: Staphylococcus aureus, ATCC6538
Method: as §2, §7

C. albicans ATCC 90028 = experiment: MIC/MFC of CSA-4110, fungi (Table 4); assay type: cell-based; details: Candida albicans, ATCC90028
Method: as §2, §7

Candida albicans 90028 = experiment: Example 1 MIC/MFC (FIG. 1, FIG. 2), C. albicans; assay type: cell-based
Method: as §3

C. auris CDC 389 = experiment: MIC/MFC of CSA-4110, fungi (Table 4); assay type: cell-based, Candida auris; details: Candidozyma auris, CDC389
Method: as §2, §7

C. auris CDC 383 = experiment: MIC/MFC of CSA-4110, fungi (Table 4); assay type: cell-based, Candida auris; details: Candidozyma auris, CDC383
Method: as §2, §7

C. auris CDC 388 = experiment: MIC/MFC of CSA-4110, fungi (Table 4); assay type: cell-based, Candida auris; details: Candidozyma auris, CDC388
Method: as §2, §7

C. auris CDC 387 = experiment: MIC/MFC of CSA-4110, fungi (Table 4); assay type: cell-based, Candida auris; details: Candidozyma auris, CDC387
Method: as §2, §7

C. auris CDC 390 = experiment: MIC/MFC of CSA-4110, fungi (Table 4); assay type: cell-based, Candida auris; details: Candidozyma auris, CDC390
Method: as §2, §7

C. auris CDC 381 = experiment: MIC/MFC of CSA-4110, fungi (Table 4); assay type: cell-based, Candida auris; details: Candidozyma auris, CDC381
Method: as §2, §7

C. auris CDC 382 = experiment: MIC/MFC of CSA-4110, fungi (Table 4); assay type: cell-based, Candida auris; details: Candidozyma auris, CDC382
Method: as §2, §7

C. auris CDC 386 = experiment: MIC/MFC of CSA-4110, fungi (Table 4); assay type: cell-based, Candida auris; details: Candidozyma auris, CDC386
Method: as §2, §7

C. auris CDC 384 = experiment: MIC/MFC of CSA-4110, fungi (Table 4); assay type: cell-based, Candida auris; details: Candidozyma auris, CDC384
Method: as §2, §7

C. auris CDC 385 = experiment: MIC/MFC of CSA-4110, fungi (Table 4); assay type: cell-based, Candida auris; details: Candidozyma auris, CDC385
Method: as §2, §7

lipase = experiment: Stability (hydrolysis) in the presence of lipase, HPLC; assay type: in vitro ADME
Method: as §4, §5, §6

In the case of `CCCCCCCCCC(=O)OCC(O)COC(=O)CC[C@@H](C)[C@H]1CC[C@H]2[C@@H]3[C@H](OC(=O)CCN)C[C@@H]4C[C@H](OC(=O)CCN)CC[C@]4(C)[C@H]3C[C@H](OC(=O)CCN)[C@]12C` (some centres unmarked) [CSA-4110], the MBC ([1]; MBC, value in parentheses, kills at least 99.9%) is reported as 8 µg/mL (≈ 9.41 µM), the MIC ([1]; first value of cell) is reported as no more than 8 µg/mL and the “MBC (FIG. 2), ranking in words” value [2] is reported as “lowest MBC and MFC”. The “MIC (FIG. 1), ranking in words” value [2] was “lowest MIC”, the MBC (Candida albicans (CA); MFC, value in parentheses) was 16 µg/mL (≈ 18.8 µM) and the MIC (Candida albicans (CA); first value of cell) was 8 µg/mL (≈ 9.41 µM). For the same compound, the half-life (physchem; pH 7.2) was 108 h, the half-life (physchem; pH 10) was 24 h and the “stability / hydrolysis in aqueous solution” value (physchem; pH 7.2) was “less stable”. For the same compound, the “stability / hydrolysis in aqueous solution” value (physchem; pH 10) was “unstable”, the MBC (S. aureus ATCC 25923) was 8 µg/mL and the MIC (S. aureus ATCC 25923) was 4 µg/mL. It also gave an MBC (S. aureus ATCC 27734) of 4 µg/mL, an MIC (S. aureus ATCC 27734) of 4 µg/mL and an MBC [3] of 4 µg/mL. The MIC [3] was 4 µg/mL, the MBC (S. aureus ATCC 6538) was 8 µg/mL and the MIC (S. aureus ATCC 6538) was 4 µg/mL. The MBC (C. albicans ATCC 90028) was 16 µg/mL (≈ 18.8 µM), the MIC (C. albicans ATCC 90028) was 4 µg/mL (≈ 4.71 µM) and the “MFC (FIG. 2), ranking in words” value (Candida albicans 90028) was “lowest MBC and MFC”. For the same compound, the “MIC (FIG. 1), ranking in words” value (Candida albicans 90028) was “same MIC”, the MBC (C. auris CDC 389) was 16 µg/mL (≈ 18.8 µM) and the MIC (C. auris CDC 389) was 8 µg/mL (≈ 9.41 µM). It also gave an MBC (C. auris CDC 383) of 16 µg/mL (≈ 18.8 µM), an MIC (C. auris CDC 383) of 8 µg/mL (≈ 9.41 µM) and an MBC (C. auris CDC 388) of 16 µg/mL (≈ 18.8 µM). It also gave an MIC (C. auris CDC 388) of 8 µg/mL (≈ 9.41 µM), an MBC (C. auris CDC 387) of 16 µg/mL (≈ 18.8 µM) and an MIC (C. auris CDC 387) of 8 µg/mL (≈ 9.41 µM). For the same compound, the MBC (C. auris CDC 390) was 16 µg/mL (≈ 18.8 µM), the MIC (C. auris CDC 390) was 8 µg/mL (≈ 9.41 µM) and the MBC (C. auris CDC 381) was 8 µg/mL (≈ 9.41 µM). It also gave an MIC (C. auris CDC 381) of 8 µg/mL (≈ 9.41 µM), an MBC (C. auris CDC 382) of 16 µg/mL (≈ 18.8 µM) and an MIC (C. auris CDC 382) of 8 µg/mL (≈ 9.41 µM). It also gave an MBC (C. auris CDC 386) of 16 µg/mL (≈ 18.8 µM), an MIC (C. auris CDC 386) of 8 µg/mL (≈ 9.41 µM) and an MBC (C. auris CDC 384) of 16 µg/mL (≈ 18.8 µM). The MIC (C. auris CDC 384) was 4 µg/mL (≈ 4.71 µM), the MBC (C. auris CDC 385) was 16 µg/mL (≈ 18.8 µM) and the MIC (C. auris CDC 385) was 8 µg/mL (≈ 9.41 µM). The “hydrolysis in aqueous solution containing lipase” value (lipase; FIG. 3D) was “hydrolyzed most rapidly” and the half-life (lipase; mammalian (lipase; species not named), lipase in aqueous solution, dissolved with a lipase at room temperature at pH=6.9) was 1 h.
